Assay results from publication PMC3334918, “Mutagenesis and Functional Studies with Succinate Dehydrogenase Inhibitors in the Wheat Pathogen Mycosphaerella graminicola” (PLoS ONE, 2012).
“And” between values parts separate entries of the source, which are not always exact repeats. Identical values can stand only once.

Assays:
Assay in all cases: in vitro succinate: Q0/DCPIP activity test, purified mitochondria
[1] = target: succinate dehydrogenase (SDH), WT (IPO323) (Zymoseptoria tritici (Mycosphaerella graminicola), UniProt F9X9V6+F9XG45+F9XH52); assay type: biochemical; conditions: ±S.E. (triplicate), read-out: IC50 in vitro
Sequence of succinate dehydrogenase (SDH), WT (IPO323) (F9XG45 entry or part of it): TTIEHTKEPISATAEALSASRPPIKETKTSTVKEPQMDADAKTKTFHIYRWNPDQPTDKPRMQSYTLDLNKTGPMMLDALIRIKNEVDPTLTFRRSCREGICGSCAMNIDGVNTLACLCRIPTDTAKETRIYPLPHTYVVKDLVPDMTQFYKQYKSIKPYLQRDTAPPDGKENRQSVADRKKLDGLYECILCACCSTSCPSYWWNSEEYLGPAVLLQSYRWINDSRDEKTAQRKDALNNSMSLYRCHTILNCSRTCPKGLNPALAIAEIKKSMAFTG
Sequence of succinate dehydrogenase (SDH), WT (IPO323) (F9X9V6 entry or part of it): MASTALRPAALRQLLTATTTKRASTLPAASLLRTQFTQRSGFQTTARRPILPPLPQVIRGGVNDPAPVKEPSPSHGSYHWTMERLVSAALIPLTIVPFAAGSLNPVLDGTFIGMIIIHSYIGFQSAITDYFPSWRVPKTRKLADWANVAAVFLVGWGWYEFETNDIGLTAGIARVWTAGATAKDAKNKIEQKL
Sequence of succinate dehydrogenase (SDH), WT (IPO323) (F9XH52 entry or part of it): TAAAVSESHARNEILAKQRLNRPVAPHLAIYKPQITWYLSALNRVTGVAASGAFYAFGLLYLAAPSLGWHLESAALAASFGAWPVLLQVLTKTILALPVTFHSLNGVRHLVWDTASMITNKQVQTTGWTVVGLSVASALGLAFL
Method: (§1) To explore the sensitivity profiles conferred by amino acid substitutions at the cellular and mitochondrial level, we determined sensitivity towards 4 different compounds for 26 of the identified substitution types both in vivo using liquid culture growth (AE media) and in vitro using purified mitochondria and the succinate: Q0/DCPIP activity test (Table 3). […] Resistance factors (RF) were determined as the ratio IC50mutant/IC50WT. […] Qp site mutations are well known to influence SDH enzyme activity and stability upon catalysis, [13], [38], [41].
(§2) Strains were grown in 1 liter TSM40 units. Cultures were inoculated at 0.05 OD600 nm and grown on a reciprocal shaker (110 rpm, 22°C) for 5 days. Cells were harvested by vacuum filtration and disrupted in liquid nitrogen using a mortar and pestle. Resultant powder was re-suspended to 10% w/v in mitochondrial extraction buffer (10 mM KHPO4 pH7.2; 10 mM KCl, 10 mM MgCl2, 0.5 M sucrose, 0.2 mM EDTA, 2 mM PMSF). Extract was clarified by centrifugation (5,000 g, 4°C for 10 minutes, 2 times), intact mitochondria were then pelleted at 10,000 g for 20 minutes at 4°C. […] This volume was transferred to conical 1.5 ml tubes and re-centrifuged, 10,000 g for 10 minutes at 4°C. […] Mitochondrial suspensions were brought to a final concentration of 10 mg ml^−1 in extraction buffer and stored at −80°C until used.
(§3) Mitochondrial suspensions were incubated at 30°C for 30 minutes in extraction buffer supplemented with 10 mM succinate prior to enzymatic measurements.
(§4) A reaction plate was equilibrated for 10 minutes at 30°C before starting the reaction. DCPIP reduction was conducted at 30°C and monitored at 595 nm using a HTS7000 microtiterplate reader (Perkin Elmer). For calculations a molecular extinction coefficient of ε = 17 mM^−1 cm^−1 was used.
(§5) Inhibitor concentrations ranged between 1 mM and 0.95 nM with uniform 4× dilution factor steps (11 inhibitor concentrations+DMSO control). 96 wells plates were pre equilibrated at reaction temperature (30°C) for 10 minutes before the reactions were started by the addition of 5 µl preactivated M. graminicola mitochondrial suspension. Calculated absorbance slopes (OD/hour) were used for IC50 calculations using Graphpad Prism 5.0 software non linear curve fitting against log inhibitor concentrations.

[2] = tested on: SDH D_D129E (strain Cbx22); assay type: biochemical, Mycosphaerella graminicola; conditions: ratio IC50mutant/IC50WT, single determination
Method: as §1, §2, §3, §4, §5

[3] = tested on: SDH B_N271K (strain Flu33); assay type: biochemical, Mycosphaerella graminicola; conditions: ratio IC50mutant/IC50WT, single determination
Method: as §1, §2, §3, §4, §5

[4] = tested on: SDH B_S218F (strain Flu41); assay type: biochemical, Mycosphaerella graminicola; conditions: ratio IC50mutant/IC50WT, single determination
Method: as §1, §2, §3, §4, §5

[5] = tested on: SDH B_I269V (strain Cbx1); assay type: biochemical, Mycosphaerella graminicola; conditions: ratio IC50mutant/IC50WT, single determination
Method: as §1, §2, §3, §4, §5

[6] = tested on: SDH B_P220L (strain Flu75); assay type: biochemical, Mycosphaerella graminicola; conditions: ratio IC50mutant/IC50WT, single determination
Method: as §1, §2, §3, §4, §5

[7] = tested on: SDH B_H267L (strain Cbx29); assay type: biochemical, Mycosphaerella graminicola; conditions: ratio IC50mutant/IC50WT, single determination
Method: as §1, §2, §3, §4, §5

[8] = tested on: SDH C_V88D (strain Ol50); assay type: biochemical, Mycosphaerella graminicola; conditions: ratio IC50mutant/IC50WT, single determination
Method: as §1, §2, §3, §4, §5

[9] = tested on: SDH C_L85P (strain Cbx12); assay type: biochemical, Mycosphaerella graminicola; conditions: ratio IC50mutant/IC50WT, single determination
Method: as §1, §2, §3, §4, §5

[10] = tested on: SDH B_N225I (strain Flu7); assay type: biochemical, Mycosphaerella graminicola; conditions: ratio IC50mutant/IC50WT, single determination
Method: as §1, §2, §3, §4, §5

[11] = tested on: SDH C_N86K (strain Izm7); assay type: biochemical, Mycosphaerella graminicola; conditions: ratio IC50mutant/IC50WT, single determination
Method: as §1, §2, §3, §4, §5

[12] = tested on: SDH B_H267Y (strain Cbx28); assay type: biochemical, Mycosphaerella graminicola; conditions: ratio IC50mutant/IC50WT, single determination
Method: as §1, §2, §3, §4, §5

[13] = tested on: SDH D_D129G (strain Cbx67); assay type: biochemical, Mycosphaerella graminicola; conditions: ratio IC50mutant/IC50WT, single determination
Method: as §1, §2, §3, §4, §5

[14] = tested on: SDH B_H267Q (strain Bos59); assay type: biochemical, Mycosphaerella graminicola; conditions: ratio IC50mutant/IC50WT, single determination
Method: as §1, §2, §3, §4, §5

[15] = tested on: SDH C_A84I (strain Flu21); assay type: biochemical, Mycosphaerella graminicola; conditions: ratio IC50mutant/IC50WT, single determination
Method: as §1, §2, §3, §4, §5

[16] = tested on: SDH C_H152R (strain Izm1); assay type: biochemical, Mycosphaerella graminicola; conditions: ratio IC50mutant/IC50WT, single determination
Method: as §1, §2, §3, §4, §5

[17] = tested on: SDH B_N225H (strain Cbx106); assay type: biochemical, Mycosphaerella graminicola; conditions: ratio IC50mutant/IC50WT, single determination
Method: as §1, §2, §3, §4, §5

[18] = tested on: SDH B_R265P (strain Cbx56); assay type: biochemical, Mycosphaerella graminicola; conditions: ratio IC50mutant/IC50WT, single determination
Method: as §1, §2, §3, §4, §5

[19] = tested on: SDH B_P220T (strain Flu110); assay type: biochemical, Mycosphaerella graminicola; conditions: ratio IC50mutant/IC50WT, single determination
Method: as §1, §2, §3, §4, §5

[20] = tested on: SDH D_D129T (strain Flu29); assay type: biochemical, Mycosphaerella graminicola; conditions: ratio IC50mutant/IC50WT, single determination, FR** (full resistance) = no sufficient inhibition detected at highest inhibitor concentration tested
Method: as §1, §2, §3, §4, §5

[21] = tested on: SDH B_H267N (strain Cbx96); assay type: biochemical, Mycosphaerella graminicola; conditions: ratio IC50mutant/IC50WT, single determination
Method: as §1, §2, §3, §4, §5

[22] = tested on: SDH C_A84V (strain Flu4); assay type: biochemical, Mycosphaerella graminicola; conditions: ratio IC50mutant/IC50WT, single determination
Method: as §1, §2, §3, §4, §5

[23] = tested on: SDH C_T79I (strain Bos64); assay type: biochemical, Mycosphaerella graminicola; conditions: ratio IC50mutant/IC50WT, single determination
Method: as §1, §2, §3, §4, §5

[24] = tested on: SDH D_D129S (strain Cbx101); assay type: biochemical, Mycosphaerella graminicola; conditions: ratio IC50mutant/IC50WT, single determination
Method: as §1, §2, §3, §4, §5

[25] = tested on: SDH C_S83G (strain Flu1); assay type: biochemical, Mycosphaerella graminicola; conditions: ratio IC50mutant/IC50WT, single determination
Method: as §1, §2, §3, §4, §5

CC(C)C1C2CCC1c1c(NC(=O)c3cn(C)nc3C(F)F)cccc12 (stereo not shown) [Isopyrazam]
IC50 [1]: 5 ± 0.3 nM
Resistance Factors (RFs) in vitro [2]: 145.3
Resistance Factors (RFs) in vitro [3]: 89.5
Resistance Factors (RFs) in vitro [4]: 18.2
Resistance Factors (RFs) in vitro [5]: 3.6
Resistance Factors (RFs) in vitro [6]: 1.2
Resistance Factors (RFs) in vitro [7]: 3248.5
Resistance Factors (RFs) in vitro [8]: 140.4
Resistance Factors (RFs) in vitro [9]: 35.3
Resistance Factors (RFs) in vitro [10]: 7.0
Resistance Factors (RFs) in vitro [11]: 849.9
Resistance Factors (RFs) in vitro [12]: 142.6
Resistance Factors (RFs) in vitro [13]: 583.2
Resistance Factors (RFs) in vitro [14]: 34.6
Resistance Factors (RFs) in vitro [15]: 8.1
Resistance Factors (RFs) in vitro [16]: 95.0
Resistance Factors (RFs) in vitro [17]: 15.7
Resistance Factors (RFs) in vitro [18]: 88.3
Resistance Factors (RFs) in vitro [19]: 1.8
Resistance Factors (RFs) in vitro [20]: 4095 and 4095.5
Resistance Factors (RFs) in vitro [21]: 11.1
Resistance Factors (RFs) in vitro [22]: 3.1
Resistance Factors (RFs) in vitro [23]: 56.4
Resistance Factors (RFs) in vitro [24]: 82.5
Resistance Factors (RFs) in vitro [25]: 38.6
